The subject of one experiment is restriction enzymes. Briefly: Restriction digest of NdeI-cut pUC19 with and without dye, agarose gel. It counts as biochemical. Conditions: crude dye, all enzymes tested with the exception of KpnI, FIG. 17. On the procedure:
The effectiveness of restriction enzymes in cutting target DNA when a dye is present in the reaction mixture was evaluated. A variety of restriction enzymes were assayed for the detrimental effect of adding Amaranth (No. 31, Table 2) to a restriction digest as assayed by agarose gel electrophoresis. NdeI-cut pUC19 plasmid was prepared. This linearized plasmid was then digested with one of several restriction enzymes which normally cut pUC19 at a polylinker site. Thus, each enzyme would be expected to yield a product of similar sizes (ranging from 212 to 263 bp). The restriction enzyme digests were performed in the presence, or absence, of Amaranth dye, and at various concentrations of the enzyme. Column 1 (the leftmost column) contains 100 bp molecular weight ladders. Columns 2-4 contains cleavage products from sequential 5-fold dilutions of the restriction enzymes in the presence of dye. Columns 5-7 are as columns 2-4 but without dye. Columns 2 and 5 contained the restriction enzyme at 1/10th the suppliers concentration (i.e. the enzyme was considered a 10× concentration). The buffers used for the digests were as recommended by the supplier. The enzymes used are listed along the right side of the gel. The relative susceptibility of the enzyme to the dyes' presence is reported next to the enzyme. The sizes of the small bands in the electrophoresis runs range from 212 to 263 bp. […]

A further experiment addresses T1, Taq DNA polymerase (Thermus aquaticus, UniProt P19821).
T1 construct: purchased Sigma Chemical Co., St. Louis, Mo
Briefly: PCR yield (TCA precipitation) versus dye concentration, purity and counterion. Conditions: for PCR toxicity by counterion: FIGS. 12A and 12B. It counts as biochemical. On the procedure: The dyes that survived these preceding tests were included in a PCR toxicity study. The dyes were added to PCR reactions at concentrations considered adequate for product performance. Enough of a 2× PCR master mix consisting of Taq DNA polymerase, 0.1 u/μl (Sigma Chemical Co., St. Louis, Mo.), PCR buffer (2×) (Sigma), dNTP's (200 μM each) (Sigma), α^32PdCTP (Amersham USA, Piscataway, N.J.), target DNA (lambda, 2 ng/μl) (Sigma) and primers (Perkin-Elmer 500 bp control, 2 μM) (Perkin-Elmer, Norwalk, Conn.) was prepared to accommodate all 11 remaining dyes plus three no dye controls. Ten μl of the 2× master mix was dispensed into reaction tubes followed by addition of 10 μl of aqueous darkly colored dye solutions or water (controls). The PCR cycling protocol was 20 cycles of 94/55/72° C. at one minute each. 20 μl of quench solution ([…] calf thymus DNA, 20 mM EDTA) was added followed by precipitation with 40 μl 40% trichloroacetic acid (TCA)/4% sodium pyrophosphate (NaPPi). The reactions were filtered on glass fiber filters, washed with 5% TCA/2% NaPPi and counted by scintillation methods. This quench/precipitation procedure will henceforth be referred to as “TCA precipitation”. […] The dyes that inhibited PCR were dropped from consideration (FIG. 6, PCR Tox, Table 2, those marked under “PCR”). […] Per cycle yield was calculated assuming the overall yield was the per cycle yield raised to the 20th power (FIG. 7). In FIG. 7, T1, T2, and T3 represent Taq controls (no dye) as in block and precipitation, numerals are dye number. Per cycle yield is calculated assuming […] where y is the 20 cycle yield (measured) and y1 is the per cycle yield. Table 3 summarizes the results as graphically depicted in FIG. 7 for each of dyes 23, 24, 25, 26, 31, and 39.
On the basis of performance to this point, the remaining dyes were considered substantially equivalent as tracer candidates. Acid violet 5 (number 39, Table 2) was chosen as a possible finalist candidate. Using this dye in a reaction mix at an absorbance of 10 (at its absorbance maximum of 527 nm) a PCR reaction was performed. […] This was considered unacceptable, but was overcome by further development efforts.
In general, the available dyes, as well as those investigated, are derived from unrelated applications. That is, many are used as fabric dyes, food colorings, biological stains etc. As such, they are available in various states of purity. In the case of the finalists, they all had purities of 80% or less, as determined by the product labels. In further experiments, PCR yields (determined by TCA precipitation) in reactions containing various concentrations of acid violet 5 (determined by A527) were compared before and after purification of the crude dye by reverse phase desalting. […] Since reversed phase desalting is not an attractive method for large scale dye purification, acid precipitation followed by ammonium hydroxide dissolution/evaporation to produce the ammonium dye was investigated. This procedure should result in an essentially salt free product. These procedures (reversed phase desalting and acid/ammonium hydroxide) were carried out for acid red 1 (No. 26, Table 2) and acid violet 5 (No. 39). […] The dyes were converted to their magnesium salts to further characterize the effect of counterion identity. This was accomplished by addition of magnesium chloride (excess) to a solution of the crude dye. The magnesium dye that immediately precipitated was recrystallized from water. […] In analogy with the magnesium salts, the calcium and zinc salts of acid red 1 were prepared to investigate whether the effect was divalent vs. monovalent cation or cation identity specific.

In the next experiment the target is Taq polymerase (Thermus aquaticus, UniProt P19821). Conditions: Hoppe et al., BioTechniques 12:679-680 (1992); cited from earlier work.
Chain of Taq polymerase (P19821 whole entry): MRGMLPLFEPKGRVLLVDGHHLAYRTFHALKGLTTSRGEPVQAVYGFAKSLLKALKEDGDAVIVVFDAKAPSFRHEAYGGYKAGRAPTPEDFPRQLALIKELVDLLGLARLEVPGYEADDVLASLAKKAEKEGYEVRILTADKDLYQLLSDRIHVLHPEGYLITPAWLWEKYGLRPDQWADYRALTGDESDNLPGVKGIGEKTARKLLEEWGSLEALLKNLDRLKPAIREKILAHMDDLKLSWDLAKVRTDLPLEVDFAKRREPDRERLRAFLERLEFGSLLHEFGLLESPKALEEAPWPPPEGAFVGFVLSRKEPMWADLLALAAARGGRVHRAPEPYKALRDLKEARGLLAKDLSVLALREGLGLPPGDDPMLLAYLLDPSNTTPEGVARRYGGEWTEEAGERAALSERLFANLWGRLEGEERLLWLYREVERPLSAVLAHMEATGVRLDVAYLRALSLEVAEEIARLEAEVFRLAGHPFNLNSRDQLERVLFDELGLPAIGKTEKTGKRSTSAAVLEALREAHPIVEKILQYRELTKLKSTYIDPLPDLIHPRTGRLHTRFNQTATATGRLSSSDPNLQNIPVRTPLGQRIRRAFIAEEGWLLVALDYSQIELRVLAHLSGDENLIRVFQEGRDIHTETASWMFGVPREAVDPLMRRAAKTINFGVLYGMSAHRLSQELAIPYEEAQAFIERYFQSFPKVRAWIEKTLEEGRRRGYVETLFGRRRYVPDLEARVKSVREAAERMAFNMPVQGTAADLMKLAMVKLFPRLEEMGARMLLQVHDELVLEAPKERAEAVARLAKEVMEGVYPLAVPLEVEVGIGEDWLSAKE

The values that follow come from patent publication US9528143B2, “Tracer reagents that enhance reaction-product analysis” (Sigma-Aldrich Co. LLC, priority 1999, dated 2016).

T1 sequence (P19821 whole entry): as above

With `O=S(=O)([O-])c1ccc2c(N=Nc3ccc(S(=O)(=O)[O-])c4ccccc34)c(O)c(S(=O)(=O)[O-])cc2c1.[Na+].[Na+].[Na+]` [Dye 31, Amaranth], the “effect of dye on restriction enzyme digests” value in the experiment with restriction enzymes is “relatively inert”.

Turning to `CC(=O)Nc1ccc(N=Nc2c(S(=O)(=O)[O-])cc3cc(S(=O)(=O)[O-])cc(NS(=O)(=O)c4ccc(C)cc4)c3c2O)cc1.[Na+].[Na+]` [Dye 39, Acid Violet 5], at Taq DNA polymerase (dye in reaction mix at absorbance of 10 at 527 nm, relative to same reaction without dye, FIG. 10), the “loss in PCR product yield” value is not below 50%.

As for `CC(=O)Nc1cc(S(=O)(=O)[O-])cc2cc(S(=O)(=O)[O-])c(N=Nc3ccccc3)c(O)c12.[Na+].[Na+]` [acid red 1 Mg salt, acid red 1], the “PCR toxicity of magnesium vs calcium and zinc salts” value at Taq DNA polymerase (FIG. 12C) is listed as “least toxic”. At Taq DNA polymerase, the “PCR toxicity by counterion” value is on record as “much less toxic to PCR than either the sodium or ammonium salts”.

On to `CC(=O)Nc1cc(S(=O)(=O)[O-])cc2cc(S(=O)(=O)[O-])c(N=Nc3ccccc3)c(O)c12.[Na+].[Na+]` [acid red 1 ammonium, acid red 1], for which the “PCR toxicity by counterion” value on Taq DNA polymerase is “more PCR toxic than the sodium”.

For the compound `Cc1cc(C2(c3ccc(O)c(C)c3)OS(=O)(=O)c3ccccc32)ccc1O` [cresol red], the “compatibility with Taq” value on Taq polymerase was “compatible with Taq”.

Take `OC[C@H]1O[C@@](CO)(O[C@H]2O[C@H](CO)[C@@H](O)[C@H](O)[C@H]2O)[C@@H](O)[C@@H]1O` [sucrose]: the “compatibility with Taq” value on Taq polymerase is on record as “compatible with Taq”.

On to `O=C([O-])C1=NN(c2ccc(S(=O)(=O)[O-])cc2)C(=O)C1N=Nc1ccc(S(=O)(=O)[O-])cc1.[Na+].[Na+].[Na+]` (centres unmarked) [tartrazine], for which, on Taq polymerase, the “compatibility with Taq” value is on record as “compatible with Taq”.

In the case of acid violet 5 [acid violet 5 Mg salt], the “PCR toxicity by counterion” value at Taq DNA polymerase is reported as “much less toxic to PCR than either the sodium or ammonium salts”.

Take acid violet 5 [acid violet 5 ammonium]: on Taq DNA polymerase, the “PCR toxicity by counterion” value was “more PCR toxic than the sodium”.

As to acid violet 5 [acid violet 5 desalted], the “susceptibility of PCR product yield to dye concentration” value at Taq DNA polymerase (desalted relative to crude compound, FIG. 11) is given as “much less susceptible to dye concentration”.
